Columns and labels:
HBV (2.2.15 cells) = assay: Antiviral activity in 2.2.15 cells: reduction of viral product accumulation (qPCR of lysates, HBsAg or HBeAg ELISA); type: cell-based, hepatitis B virus (HBV); conditions: Hepatitis B virus, 120 h, day 5 post treatment, 50% reduction of viral product accumulation in lysates or supernatants vs no drug controls, readout (qPCR, HBsAg, HBeAg) not specified
Outline: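 HBV-producing 2.2.15 cells, 35,000/well, treated with 5-fold serial compound dilutions at 0.5% final DMSO for 5 days. Lysate HBV DNA by qPCR or supernatant HBsAg/HBeAg by ELISA; EC50 is 50% reduction versus no-drug control, binned A<0.1 μM, B 0.1-1 μM, C>1 μM.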

[1] = Compound induced cellular toxicity in HepG2 cells (ATPlite 1 Step); type: cell-based; conditions: human, three days, 50% reduction of total ATP levels vs no drug controls
Description: At day 3, post seeding cells are treated with ATPlite 1 Step according to the manufacturer's instructions.

COCCCOc1cc2c(cc1-c1ccc(C)o1)-c1cc(=O)c(C(=O)O)cn1[C@H](C(C)(C)C)C2 [Example 1, (S)-6-(tert-butyl)-9-(3-methoxypropoxy)-10-(5-methylfuran-2-yl)-2-oxo-6,7-dihydro-2H-pyrido[2,1-a]isoquinoline-3-carboxylic Acid]
EC50 (HBV (2.2.15 cells)): < 0.1 µM
CC50 at 3 days [1]: > 25 µM

COCCCOc1cc2c(cc1-c1ccoc1)-c1cc(=O)c(C(=O)O)cn1[C@H](C(C)(C)C)C2 [Example 2, (S)-6-(tert-butyl)-10-(furan-3-yl)-9-(3-methoxypropoxy)-2-oxo-6,7-dihydro-2H-pyrido[2,1-a]isoquinoline-3-carboxylic Acid]
EC50 (HBV (2.2.15 cells)): < 0.1 µM
CC50 at 3 days [1]: > 25 µM

COCCCOc1cc2c(cc1-c1ccccc1)-c1cc(=O)c(C(=O)O)cn1[C@H](C(C)(C)C)C2 [Example 3, (S)-6-(tert-butyl)-9-(3-methoxypropoxy)-2-oxo-10-phenyl-6,7-dihydro-2H-pyrido[2,1-a]isoquinoline-3-carboxylic Acid]
EC50 (HBV (2.2.15 cells)): < 0.1 µM
CC50 at 3 days [1]: < 10 µM

COCCCOc1cc2c(cc1-c1cnn(C)c1)-c1cc(=O)c(C(=O)O)cn1[C@H](C(C)(C)C)C2 [Example 4, (S)-6-(tert-butyl)-9-(3-methoxypropoxy)-10-(1-methyl-1H-pyrazol-4-yl)-2-oxo-6,7-dihydro-2H-pyrido[2,1-a]isoquinoline-3-carboxylic Acid]
EC50 (HBV (2.2.15 cells)): < 0.1 µM
CC50 at 3 days [1]: > 25 µM

COCCCOc1cc2c(cc1-c1ccsc1)-c1cc(=O)c(C(=O)O)cn1[C@H](C(C)(C)C)C2 [Example 5, (S)-6-(tert-butyl)-9-(3-methoxypropoxy)-2-oxo-10-(thiophen-3-yl)-6,7-dihydro-2H-pyrido[2,1-a]isoquinoline-3-carboxylic Acid]
EC50 (HBV (2.2.15 cells)): < 0.1 µM
CC50 at 3 days [1]: > 25 µM

COCCCOc1cc2c(cc1-c1cnco1)-c1cc(=O)c(C(=O)O)cn1[C@H](C(C)(C)C)C2 [Example 6, (S)-6-(tert-butyl)-9-(3-methoxypropoxy)-10-(oxazol-5-yl)-2-oxo-6,7-dihydro-2H-pyrido[2,1-a]isoquinoline-3-carboxylic Acid]
EC50 (HBV (2.2.15 cells)): < 0.1 µM
CC50 at 3 days [1]: > 25 µM

COCCCOc1cc2c(cc1-c1ccco1)-c1cc(=O)c(C(=O)O)cn1[C@H](C(C)(C)C)C2 [Example 7, (S)-6-(tert-butyl)-10-(furan-2-yl)-9-(3-methoxypropoxy)-2-oxo-6,7-dihydro-2H-pyrido[2,1-a]isoquinoline-3-carboxylic Acid]
EC50 (HBV (2.2.15 cells)): < 0.1 µM
CC50 at 3 days [1]: > 25 µM

COCCCOc1cc2c(cc1-c1cccs1)-c1cc(=O)c(C(=O)O)cn1[C@H](C(C)(C)C)C2 [Example 8, (S)-6-(tert-butyl)-9-(3-methoxypropoxy)-2-oxo-10-(thiophen-2-yl)-6,7-dihydro-2H-pyrido[2,1-a]isoquinoline-3-carboxylic Acid]
EC50 (HBV (2.2.15 cells)): < 0.1 µM
CC50 at 3 days [1]: 10 to 25 µM

COCCCOc1cc2c(cc1-c1cc3ccccc3o1)-c1cc(=O)c(C(=O)O)cn1[C@H](C(C)(C)C)C2 [Example 9, (S)-10-(benzofuran-2-yl)-6-(tert-butyl)-9-(3-methoxypropoxy)-2-oxo-6,7-dihydro-2H-pyrido[2,1-a]isoquinoline-3-carboxylic Acid]
EC50 (HBV (2.2.15 cells)): < 0.1 µM
CC50 at 3 days [1]: > 25 µM

COCCCOc1cc2c(cc1-c1coc3ccccc13)-c1cc(=O)c(C(=O)O)cn1[C@H](C(C)(C)C)C2 [Example 10, (S)-10-(benzofuran-3-yl)-6-(tert-butyl)-9-(3-methoxypropoxy)-2-oxo-6,7-dihydro-2H-pyrido[2,1-a]isoquinoline-3-carboxylic Acid]
EC50 (HBV (2.2.15 cells)): < 0.1 µM
CC50 at 3 days [1]: > 25 µM

COCCCOc1cc2c(cc1-c1cc[nH]c1)-c1cc(=O)c(C(=O)O)cn1[C@H](C(C)(C)C)C2 [Example 11, (S)-6-(tert-butyl)-9-(3-methoxypropoxy)-2-oxo-10-(1H-pyrrol-3-yl)-6,7-dihydro-2H-pyrido[2,1-a]isoquinoline-3-carboxylic Acid]
EC50 (HBV (2.2.15 cells)): < 0.1 µM
CC50 at 3 days [1]: > 25 µM

COCCCOc1cc2c(cc1-c1cnc3ccccc3c1)-c1cc(=O)c(C(=O)O)cn1[C@H](C(C)(C)C)C2 [Example 12, (S)-6-(tert-butyl)-9-(3-methoxypropoxy)-2-oxo-10-(quinolin-3-yl)-6,7-dihydro-2H-pyrido[2,1-a]isoquinoline-3-carboxylic Acid]
EC50 (HBV (2.2.15 cells)): < 0.1 µM
CC50 at 3 days [1]: > 25 µM

COCCCOc1cc2c(cc1-c1ccccc1F)-c1cc(=O)c(C(=O)O)cn1[C@H](C(C)(C)C)C2 [Example 13, (S)-6-(tert-butyl)-10-(2-fluorophenyl)-9-(3-methoxypropoxy)-2-oxo-6,7-dihydro-2H-pyrido[2,1-a]isoquinoline-3-carboxylic Acid]
EC50 (HBV (2.2.15 cells)): < 0.1 µM
CC50 at 3 days [1]: 10 to 25 µM

COCCCOc1cc2c(cc1-c1cccc(F)c1)-c1cc(=O)c(C(=O)O)cn1[C@H](C(C)(C)C)C2 [Example 14, (S)-6-(tert-butyl)-10-(3-fluorophenyl)-9-(3-methoxypropoxy)-2-oxo-6,7-dihydro-2H-pyrido[2,1-a]isoquinoline-3-carboxylic Acid]
EC50 (HBV (2.2.15 cells)): < 0.1 µM
CC50 at 3 days [1]: 10 to 25 µM

COCCCOc1cc2c(cc1-c1ccc(F)cc1)-c1cc(=O)c(C(=O)O)cn1[C@H](C(C)(C)C)C2 [Example 15, (S)-6-(tert-butyl)-10-(4-fluorophenyl)-9-(3-methoxypropoxy)-2-oxo-6,7-dihydro-2H-pyrido[2,1-a]isoquinoline-3-carboxylic Acid]
EC50 (HBV (2.2.15 cells)): < 0.1 µM
CC50 at 3 days [1]: 10 to 25 µM

COCCCOc1cc2c(cc1-c1cccc(OC)c1)-c1cc(=O)c(C(=O)O)cn1[C@H](C(C)(C)C)C2 [Example 16, (S)-6-(tert-butyl)-10-(3-methoxyphenyl)-9-(3-methoxypropoxy)-2-oxo-6,7-dihydro-2H-pyrido[2,1-a]isoquinoline-3-carboxylic Acid]
EC50 (HBV (2.2.15 cells)): < 0.1 µM
CC50 at 3 days [1]: 10 to 25 µM

COCCCOc1cc2c(cc1-c1ccc(OC)cc1)-c1cc(=O)c(C(=O)O)cn1[C@H](C(C)(C)C)C2 [Example 17, (S)-6-(tert-butyl)-10-(4-methoxyphenyl)-9-(3-methoxypropoxy)-2-oxo-6,7-dihydro-2H-pyrido[2,1-a]isoquinoline-3-carboxylic Acid]
EC50 (HBV (2.2.15 cells)): < 0.1 µM
CC50 at 3 days [1]: 10 to 25 µM

CC1(C)Cc2c3c(cc(-c4ccn[nH]4)c2O1)-c1cc(=O)c(C(=O)O)cn1[C@H](C(C)(C)C)C3 [Example 146, (S)-5-(tert-butyl)-2,2-dimethyl-9-oxo-12-(1H-pyrazol-5-yl)-2,3,4,9-tetrahydro-5H-furo[3,2-f]pyrido[2,1-a]isoquinoline-8-carboxylic Acid]
EC50 (HBV (2.2.15 cells)): > 1 µM

CC1(C)Cc2c3c(cc(-c4cn[nH]c4)c2O1)-c1cc(=O)c(C(=O)O)cn1[C@H](C(C)(C)C)C3 [Example 147, (S)-5-(tert-butyl)-2,2-dimethyl-9-oxo-12-(1H-pyrazol-4-yl)-2,3,4,9-tetrahydro-5H-furo[3,2-f]pyrido[2,1-a]isoquinoline-8-carboxylic Acid]
EC50 (HBV (2.2.15 cells)): > 1 µM

CC1(C)Cc2c3c(cc(-c4ccco4)c2O1)-c1cc(=O)c(C(=O)O)cn1[C@H](C(C)(C)C)C3 [Example 148, (S)-5-(tert-butyl)-12-(furan-2-yl)-2,2-dimethyl-9-oxo-2,3,4,9-tetrahydro-5H-furo[3,2-f]pyrido[2,1-a]isoquinoline-8-carboxylic Acid]
EC50 (HBV (2.2.15 cells)): > 1 µM

CC1(C)Cc2c3c(cc(-c4ccsc4)c2O1)-c1cc(=O)c(C(=O)O)cn1[C@H](C(C)(C)C)C3 [Example 149, (S)-5-(tert-butyl)-2,2-dimethyl-9-oxo-12-(thiophen-3-yl)-2,3,4,9-tetrahydro-5H-furo[3,2-f]pyrido[2,1-a]isoquinoline-8-carboxylic Acid]
EC50 (HBV (2.2.15 cells)): > 1 µM

Cn1nccc1-c1cc2c(c3c1OC(C)(C)C3)C[C@@H](C(C)(C)C)n1cc(C(=O)O)c(=O)cc1-2 [Example 150, (S)-5-(tert-butyl)-2,2-dimethyl-12-(1-methyl-1H-pyrazol-5-yl)-9-oxo-2,3,4,9-tetrahydro-5H-furo[3,2-f]pyrido[2,1-a]isoquinoline-8-carboxylic Acid]
EC50 (HBV (2.2.15 cells)): > 1 µM

Cn1cc(-c2cc3c(c4c2OC(C)(C)C4)C[C@@H](C(C)(C)C)n2cc(C(=O)O)c(=O)cc2-3)cn1 [Example 151, (S)-5-(tert-butyl)-2,2-dimethyl-12-(1-methyl-1H-pyrazol-4-yl)-9-oxo-2,3,4,9-tetrahydro-5H-furo[3,2-f]pyrido[2,1-a]isoquinoline-8-carboxylic Acid]
EC50 (HBV (2.2.15 cells)): > 1 µM

CC1(C)Cc2c3c(cc(-c4cccs4)c2O1)-c1cc(=O)c(C(=O)O)cn1[C@H](C(C)(C)C)C3 [Example 152, (S)-5-(tert-butyl)-2,2-dimethyl-9-oxo-12-(thiophen-2-yl)-2,3,4,9-tetrahydro-5H-furo[3,2-f]pyrido[2,1-a]isoquinoline-8-carboxylic Acid]
EC50 (HBV (2.2.15 cells)): > 1 µM

COCCCCc1cc2c(cc1N1CC(F)(F)C1)-c1cc(=O)c(C(=O)O)cn1[C@H](C(C)(C)C)C2 [Example 153, (S)-6-(tert-butyl)-10-(3,3-difluoroazetidin-1-yl)-9-(4-methoxybutyl)-2-oxo-6,7-dihydro-2H-pyrido[2,1-a]isoquinoline-3-carboxylic Acid]
EC50 (HBV (2.2.15 cells)): < 0.1 µM

CC(C)(C)[C@@H]1Cc2ccc(N3CC(F)(F)C3)cc2-c2cc(=O)c(C(=O)O)cn21 [Example 154, (S)-6-(tert-butyl)-10-(3,3-difluoroazetidin-1-yl)-2-oxo-6,7-dihydro-2H-pyrido[2,1-a]isoquinoline-3-carboxylic Acid]
EC50 (HBV (2.2.15 cells)): > 1 µM

CC(C)(C)[C@@H]1Cc2c(cc(N3CC(F)(F)C3)c3c2C[C@H](C(F)F)O3)-c2cc(=O)c(C(=O)O)cn21 [Example 155, (2R,5S)-5-(tert-butyl)-12-(3,3-difluoroazetidin-1-yl)-2-(difluoromethyl)-9-oxo-2,3,4,9-tetrahydro-5H-furo[3,2-f]pyrido[2,1-a]isoquinoline-8-carboxylic Acid]
EC50 (HBV (2.2.15 cells)): > 1 µM
